8 compounds from ChEMBL document CHEMBL1126342, “Synthesis and preliminary biological evaluation of 1-aminomethyl-4-substituted-4-H-pyrrolo[2,1-C][1,4] benzothiazines, a new class of calcium antagonists” (Bioorg Med Chem Lett, 1992) can be followed below.

What is called IC50 is the concentration that gives 50% inhibition. Usually Ki stands for a dissociation constant, usually derived from enzyme kinetics or from competition with a known ligand.

For experiment [1], the target named is Voltage-gated L-type calcium channel (Rattus norvegicus, UniProt P22002+Q02485+P27732). Kind of experiment: Displacement of [3H]nitrendipine from calcium channel receptor. The experiment is classed as protein assay.
The species entered for experiment [2] is Mus musculus. Kind of experiment: Blocking calcium channels in mice using electrophysiological technique at 10 uM. The experiment is classed as functional.
For experiment [3], the species on record is Mus musculus. The experiment in a line: Blocking calcium channels in mice using electrophysiological technique at 100 uM. The experiment is classed as functional.

Several values for one entry are separate records, joined by “and”; a condition that tells them apart may be missing. Equal values may be shown once.

With `COc1ccc(C2Sc3ccccc3-n3c(CNc4ccc(F)cc4)ccc32)cc1` (centres undefined), in experiment [1], the IC50 is given as 5870 nM and the Ki is 2200 nM.
As for `CCC(C)NCc1ccc2n1-c1ccccc1SC2c1ccc(OC)cc1OC` (centres undefined), in experiment [1], the IC50 worked out at 14.8 nM and the Ki came out at 5.55 nM.
In the same order, the values of `COc1ccc(C2Sc3ccccc3-n3c(CNCCc4ccc(OC)c(OC)c4)ccc32)cc1` (centres undefined) are 534 nM and 200 nM.
Take `COc1ccc(C2Sc3ccccc3-n3c(CN(C)C)ccc32)c(OC)c1` (centres undefined): the IC50 in experiment [1] worked out at 150 nM. Besides, the Ki in experiment [1] is recorded as 56 nM. The Activity in the experiment filed under Mus musculus [2] was found to be 24%; in the experiment filed under Mus musculus [3], 74%.
In the case of `CN(C)Cc1ccc2n1-c1ccccc1SC2c1ccccc1` (centres undefined), in experiment [1], the IC50 was 315 nM and the Ki worked out at 118 nM. Moreover, the Activity in the experiment listed under Mus musculus [2] is 40% and 65%.
Take `COc1ccc(C2Sc3ccccc3-n3c(CN(C)C)ccc32)cc1` (centres undefined): the Activity in the experiment filed under Mus musculus [2] stood at 20%; in the experiment filed under Mus musculus [3], 62%.
Turning to `COc1ccc(C2Sc3ccccc3-n3c(CN(C)CCc4ccc(OC)c(OC)c4)ccc32)cc1.Cl` (centres undefined), in experiment [1], the IC50 is 53 nM and the Ki was 19 nM.
With `COc1ccc([C@@H]2Sc3ccccc3N(CCN(C)C)C(=O)[C@@H]2OC(C)=O)cc1` [DILTIAZEM], the Activity came out at 24% in the experiment filed under Mus musculus [2] and 62% in the experiment filed under Mus musculus [3].
